How the values were obtained:
[1] = target: T1, AXL (Homo sapiens, UniProt P30530); test: TR-FRET kinase activity assay, AXL; format: biochemical; conditions: ATP at Km, 60 minutes
T1 sequence (P30530 26-894): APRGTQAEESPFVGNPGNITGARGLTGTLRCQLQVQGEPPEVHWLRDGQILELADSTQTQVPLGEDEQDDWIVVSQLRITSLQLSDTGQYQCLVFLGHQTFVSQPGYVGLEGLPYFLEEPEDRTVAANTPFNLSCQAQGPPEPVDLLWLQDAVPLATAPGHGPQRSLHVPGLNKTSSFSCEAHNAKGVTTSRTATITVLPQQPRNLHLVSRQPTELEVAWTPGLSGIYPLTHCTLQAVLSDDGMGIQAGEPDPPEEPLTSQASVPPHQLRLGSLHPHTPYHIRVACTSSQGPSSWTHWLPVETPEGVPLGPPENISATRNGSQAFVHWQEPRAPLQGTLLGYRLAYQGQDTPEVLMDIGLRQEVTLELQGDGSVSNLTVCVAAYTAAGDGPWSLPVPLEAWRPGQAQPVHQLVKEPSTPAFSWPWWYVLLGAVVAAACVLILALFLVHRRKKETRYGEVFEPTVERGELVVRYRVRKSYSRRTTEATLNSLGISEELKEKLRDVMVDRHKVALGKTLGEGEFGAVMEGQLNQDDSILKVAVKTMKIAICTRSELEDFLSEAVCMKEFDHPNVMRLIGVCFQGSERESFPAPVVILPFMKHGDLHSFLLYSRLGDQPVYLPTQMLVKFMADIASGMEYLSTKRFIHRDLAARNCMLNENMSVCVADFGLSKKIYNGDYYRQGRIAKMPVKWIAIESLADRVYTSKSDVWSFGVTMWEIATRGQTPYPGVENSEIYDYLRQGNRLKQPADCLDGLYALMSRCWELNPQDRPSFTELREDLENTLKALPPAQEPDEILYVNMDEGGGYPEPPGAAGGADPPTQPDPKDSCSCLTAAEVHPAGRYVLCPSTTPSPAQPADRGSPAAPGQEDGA
In short: (§1)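 Enzyme, fluorescent peptide substrate and compound were mixed, and the reaction was started with ATP at each kinase's Km, in 50 mM HEPES pH 7.5, 10 mM MgCl2, 1 mM EGTA, 0.01% Brij 35, 1 mM DTT at RT. After 60 minutes EDTA quench, Eu-labelled phospho-specific antibody was added for 30 minutes, and IC50 was derived from TR-FRET signal loss.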

[2] = target: T2, FLT3 (Homo sapiens, UniProt P36888); test: TR-FRET kinase activity assay, FLT3; format: biochemical; conditions: ATP at Km, 60 minutes
T2 sequence (P36888 27-993): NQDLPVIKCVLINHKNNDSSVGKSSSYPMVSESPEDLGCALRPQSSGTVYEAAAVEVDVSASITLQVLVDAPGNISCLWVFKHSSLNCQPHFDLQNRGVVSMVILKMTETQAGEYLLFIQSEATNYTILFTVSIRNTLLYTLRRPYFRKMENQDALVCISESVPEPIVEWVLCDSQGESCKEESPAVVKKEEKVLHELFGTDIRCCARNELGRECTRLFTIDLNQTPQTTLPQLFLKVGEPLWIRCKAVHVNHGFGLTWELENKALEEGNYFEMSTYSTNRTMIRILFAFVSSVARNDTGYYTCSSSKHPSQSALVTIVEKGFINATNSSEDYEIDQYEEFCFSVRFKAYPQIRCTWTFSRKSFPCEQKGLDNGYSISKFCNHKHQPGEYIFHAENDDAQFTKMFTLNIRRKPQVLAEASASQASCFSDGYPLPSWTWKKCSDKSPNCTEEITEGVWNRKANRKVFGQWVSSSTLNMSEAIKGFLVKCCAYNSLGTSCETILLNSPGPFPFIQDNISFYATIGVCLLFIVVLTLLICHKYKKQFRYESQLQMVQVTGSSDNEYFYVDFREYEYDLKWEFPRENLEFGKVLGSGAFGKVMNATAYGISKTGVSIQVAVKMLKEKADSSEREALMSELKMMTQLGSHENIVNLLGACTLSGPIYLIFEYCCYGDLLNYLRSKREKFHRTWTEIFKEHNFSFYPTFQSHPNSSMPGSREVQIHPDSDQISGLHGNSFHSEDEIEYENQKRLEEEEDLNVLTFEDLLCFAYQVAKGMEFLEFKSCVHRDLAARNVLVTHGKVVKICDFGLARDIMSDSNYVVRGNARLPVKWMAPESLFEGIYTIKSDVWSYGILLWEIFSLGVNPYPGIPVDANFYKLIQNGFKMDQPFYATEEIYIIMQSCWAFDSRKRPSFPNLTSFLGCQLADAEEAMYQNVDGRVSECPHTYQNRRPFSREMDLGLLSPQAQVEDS
In short: as §1

Structure (SMILES) | IC50 [1] [µM] | IC50 [2] [µM]
COC[C@H](C)Nc1ncc2c(-c3ccc(CN4CCN(C)CC4)cc3)cc([C@H]3CC[C@H](O)CC3)n2n1 (single isomer, unassigned) [Compound 124] | ≤ 0.1 | 0.1 to 1
CNc1cc(-c2cc([C@H]3CC[C@H](O)CC3)n3nc(N[C@@H](C)COC)ncc23)ccn1 [Compound 354] | ≤ 0.1 | 0.1 to 1
COC[C@H](C)Nc1ncc2c(-c3cnn(C[C@@H]4CCC(=O)N4)c3)cc([C@H]3CC[C@H](O)CC3)n2n1 [Compound 368] | ≤ 0.1 | 0.1 to 1
COCC(C)Nc1ncc2c(C3CCN(c4ccnc(C)n4)C3)cc(C3CCC(O)CC3)n2n1 (centres unmarked) [Compound 373] | 0.1 to 1 | 1 to 10

From patent publication US11040981B2, “Pyrrolotriazine compounds and methods of inhibiting TAM kinases” (Syros Pharmaceuticals, Inc., priority 2017, dated 2021)
